Assay results from patent publication US7919577B2, “Adrenocorticotropic hormone analogs and related methods” (Colorado Seminary, priority 2004, dated 2011).

Key:
[1] = system: dexamethasone-suppressed male FVB/N mice; assay: in vivo Serum Corticosteroid Induction Assay (Example 1); parameters: species or system mouse; conditions: for in vivo activity, % corticosterone induction relative to mACTH(1-24): FIG. 5, method of Example 1; for Percent reduction in serum corticosteroid: relative to unmodified mACTH(1-24), 1 μg subcutaneously to dexamethasone-suppressed mice, blood one hour later
Experimental: An in vivo Serum Corticosteroid Induction Assay measures the level of corticosteroid or corticosterone in the blood stream of a subject. More specifically, the in vivo Serum Corticosteroid Induction Assay can include the following steps: first, an agent to suppress endogenous ACTH production was administered to a mouse subject, such as an intraperitoneal injection of dexamethasone; second, after waiting a suitable period of time for suppression of endogenous ACTH production (e.g., 1.5-2.0 hours), a test compound can be administered to the mouse by a suitable method, such as intraperitoneal or subcutaneous injection; and third, after waiting a suitable period of time (e.g., 1 hour) for action of the injected test compound, a blood sample can be taken from the subject and the level of serum corticosterone can be determined by a suitable method, such as a competitive radioimmunoassay using ^125I RIA kit (ICN, Costa Mesa, Calif.). Example 1 describes a murine in vivo Serum Corticosteroid Induction Assay in detail.
The corticosteroid or corticosterone secretion induced in vivo by an ACTH analog compound was compared to the level of corticosteroid secretion produced by an unmodified ACTH compound by measuring blood serum corticosteroid after administering either the ACTH or ACTH analog as test compounds. […] ACTH analog compositions with decreased function were identified by measuring corticosterone levels using standard radioimmunoassay (RIA) analysis on blood samples collected one hour after administering the mACTH(1-24) or ACTH analog compound to dexamethasone-suppressed mice. In FIG. 1, the potency of various ACTH analog peptides is expressed as percent induction of corticosterone, with mouse ACTH being 100%. […] The percent of corticosterone induction 12 of ACTH analog Compounds in Samples 2-10 are shown as a percentage of the concentration of serum corticosterone 20 measured for unmodified mACTH(1-24) in the in vivo Serum Corticosteroid Adrenal Induction Assay. The structural modifications and measured percentage reduction in serum measured for Samples 2-10 in FIG. 1 are shown in Table 3 below.
The in vivo Serum Corticosteroid Induction Assay was performed according the following method. First, two to three month-old male FVB/N mice from our colony, five per group, were injected intraperitoneally with dexamethasone (0.4 mg/0.1 ml PBS per mouse; Sigma, St. Louis, Mo.) to suppress their endogenous ACTH production. See Hajos, G T et al., “Studies of the potency of polypeptides with ACTH action by a new method based on continuous measurement of plasma corticosterone,” Steroids Lipids Res 3:225-228 (1972), Costa, J L, et al., “Mutational analysis of evolutionarily conserved ACTH residues,” Gen Comp Endocrinol, 136:12-16 (2004), and Karpac, J, et al., “Development, Maintenance, and Function of the Adrenal Gland in Early Postnatal Pro-opiomelanocortin Null Mutant Mice,” Endocrinology (2005), published online ahead of print Feb. 24, 2005, all of which are incorporated herein by reference.
Second, ninety to one hundred twenty minutes later, the dexamethasone-suppressed mice were injected subcutaneously between the shoulder blades with either unmodified mACTH(1-24) or one of several ACTH analog peptide compounds (1 μg/0.1 mL PBS/0.5% BSA), or with vehicle alone (control) (0.1 mL PBS/0.5% BSA). The following ACTH analog peptide compounds were administered to separate mice: 1: murine ACTH1-24; 2: V26F,E30K; 3: P19W,K21E,Y23R; 4: E30K,P36R; 5: ALA19-24; 6: V26F,P36R; 7: P19W, K21E; 8: P19W,K21A,delY23; 9: P19W,K21A; 10: KRRP16-19RAAW (AT814) (SEQ ID NO:20).
Third, one hour later, blood was collected within less than 1 minute from a small incision in the tail, and serum was flash-frozen and stored at −80° C. until assayed. Serum corticosterone was determined by competitive radioimmunoassay (^125I RIA kit; ICN, Costa Mesa, Calif.) according to the manufacturer's recommendations. One microliter of serum was used per assay sample. […]

[2] = system: explanted mouse adrenal membrane (adrenal halves); assay: in vitro Serum-free Adrenal Inhibition Assay (Example 4); assay type: cell-based; conditions: for in vitro activity, % corticosterone induction relative to mACTH(1-24): FIG. 5, method of Example 4; for in vitro activity compared with in vivo activity of the same analog: FIG. 5, in vitro Example 4, in vivo Example 1
Experimental: A series of separate in vitro Serum-Free Adrenal Corticosteroid Inhibition Assay were performed to identify ACTH analogs that inhibit ACTH-induced adrenal hormone production in vitro. The concentration of corticosterone was measured according to the procedure of Example 4 in a serum-free culture medium containing explanted adrenal membrane and unmodified ACTH, AT814 ACTH analog (SEQ ID NO:20), or a combination of ACTH and AT814 at 100 ng/mL each. […] Corticosterone levels were taken at 2.0 hours after the adrenal membrane was placed in the serum free M199 medium, and each corticosterone level in Table 5 is an average of five samples.
The in vitro Serum-free Adrenal Inhibition Assay was performed according the following method. First, adrenals were removed from mice, dissected free of fat, and cut in half. See Costa, J L, et al., “Mutational analysis of evolutionarily conserved ACTH residues,” Gen Comp Endocrinol. 136:12-16 (2004); and Weber, M M, et al., “Postnatal overexpression of insulin-like growth factor II in transgenic mice is associated with adrenocortical hyperplasia and enhanced steroidogenesis,” Endocrinology 140:1537-1543 (1999), incorporated herein by reference.
Second, each adrenal half was placed into an individual well of a 4-well dish, one dish per mouse. Adrenal halves were incubated at 5% CO2, 37° C., in 0.5 ml serum-free medium (M199; Invitrogen) for 30 minutes to equilibrate.
Third, medium was removed and replaced by 0.5 ml M199 containing ACTH, AT814, or both, at 100 ng/ml each; controls had no peptides added.
Fourth, after 2 hours of incubation, the medium was removed, pooled for all four halves from each mouse, and assayed by corticosterone using standard RIA methods. corticosterone was determined by competitive radioimmunoassay (^125I RIA kit; ICN, Costa Mesa, Calif.) according to the manufacturer's recommendations. One microliter of serum was used per assay sample. Samples were run in duplicates.

Substance | in vivo activity, % corticosterone induction relative to mACTH(1-24) [1] | in vitro activity, % corticosterone induction relative to mACTH(1-24) [2] | in vitro activity compared with in vivo activity of the same analog [2] | Percent reduction in serum corticosteroid [1] [%] | in vivo activity, percent greater than the in vitro activity of unmodified mACTH ([1]; FIG. 5) | serum half life ([1]; inferred from in vivo versus in vitro activity, FIG. 5)
(K15A, R17A)mACTH(1-24) [ACTH analog 410] | reduced | reduced | greater than its in vivo activity |  |  | 
(P19W, K21A)mACTH (SYSMEHFRWGKPVGKKRRWVAVYPNVAENESAEAFPLEF; Corticotropin residues 1-24; UniProt P01193 124-162, looked up, variant P19W K21A) [Sample 9] | reduced | reduced | greater than its in vivo activity |  |  | 
(P19W, K21A, delY23)mACTH (SYSMEHFRWGKPVGKKRRWVAVPNVAENESAEAFPLEF; Corticotropin; UniProt P01193 124-162, looked up, variant P19W K21A Y23*) [Sample 8] |  |  |  | 76.0 |  | 
(PVKVYP19-24AAAAA)mACTH [Sample 5] | greater relative to both mACTH and to other ACTH analogs |  |  | 51 | about 50% | increased serum half life
(K16A, R18A)mACTH(1-24) [ACTH analog 430] | reduced | reduced | greater than its in vivo activity |  |  | 
(K15Q, R17Q)mACTH(1-24) [ACTH analog 440] | reduced | reduced | greater than its in vivo activity |  |  | 
(K16A, R17A)mACTH(1-24) [ACTH analog 420] | reduced | reduced | greater than its in vivo activity |  |  | 
